We go through 21 compounds from US8124764B2, “Fused heterocyclyc inhibitor compounds” (Gilead Sciences, Inc., priority 2008, dated 2012).

The target in one test is HDAC 1 (Homo sapiens, UniProt Q13547). As to the kind of experiment: HDAC 1 inhibition assay with about 3 hours enzyme/compound preincubation (fluorophore/quencher peptide substrate). It is filed as biochemical. Particulars: 3-hour preincubation of enzyme with compound; read-out: HDAC 1 inhibitory activity (IC50 [μM]) (3-hour preincubation). As to the method:
HDAC inhibitory activity of the compound of Example 1 was measured by two types of assays in which HDAC 1 was used as a target molecule. The first assay was carried out without preincubation after addition of the enzyme. The test compound was suspended in and titrated in dmso. It was then spotted into a 384-well test plate. The enzyme, HDAC 1, was diluted in assay buffer containing 25 mM Tris-HCl (pH 8.0), 137 mM NaCl, 2.7 mM KCl, and 0.01% Tween-20 and added to the pre-spotted compound. The peptide substrate containing a fluorophore/quencher pair was diluted in the same assay buffer and added to the compound/enzyme mix initiating the reaction. The reaction incubated at room temperature for about 45 minutes. A concentrated developer solution was diluted in the assay buffer, and added to the reaction. The reaction was incubated at room temperature for about 15 minutes and relative fluorescence was read on an instrument reader.
The second assay is similar to the first assay described above, except that preincubation is carried out for about 3 hours after the enzyme is introduced. The test compound was suspended in, and titrated in DMSO. It was then spotted into a 384-well test plate. The enzyme, HDAC 1, was diluted in the same assay buffer as used in the previous assay and added to the pre-spotted compound. The enzyme/compound mix was incubated at room temperature for about 3 hours. The peptide substrate containing a fluorophore/quencher pair was diluted in the assay buffer and added to the compound/enzyme mix initiating the reaction. The reaction incubated at room temperature for 45 minutes. A concentrated developer solution was diluted in the assay buffer, and added to the reaction. The reaction was incubated at room temperature for about 15 minutes and relative fluorescence was read on an instrument reader.

The target of a further test is CDK2 (Homo sapiens, UniProt P24941). The test can be described thus: CDK2 inhibition. The format is biochemical.

Where only a bound is given, the exact number is not on record here.

HDAC 1, sequence (Q13547 whole entry, species assumed): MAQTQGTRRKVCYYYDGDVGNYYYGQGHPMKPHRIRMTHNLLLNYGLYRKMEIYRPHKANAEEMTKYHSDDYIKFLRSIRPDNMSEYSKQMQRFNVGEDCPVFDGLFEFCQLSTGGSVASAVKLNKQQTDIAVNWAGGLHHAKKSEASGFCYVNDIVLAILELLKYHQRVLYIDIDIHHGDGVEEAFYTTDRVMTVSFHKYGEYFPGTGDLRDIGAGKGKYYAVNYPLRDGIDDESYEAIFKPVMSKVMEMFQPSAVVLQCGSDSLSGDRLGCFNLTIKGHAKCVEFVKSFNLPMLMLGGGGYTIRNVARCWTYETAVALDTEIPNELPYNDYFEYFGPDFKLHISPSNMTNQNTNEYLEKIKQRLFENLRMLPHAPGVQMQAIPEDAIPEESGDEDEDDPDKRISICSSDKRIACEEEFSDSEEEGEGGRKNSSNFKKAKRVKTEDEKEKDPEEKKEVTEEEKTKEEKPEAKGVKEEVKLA

A word on the IC50: it is the concentration needed to halve the response being measured. Take `Cc1nc2ccc(C(F)(F)F)cn2c1-c1ccnc(Nc2ccc(C(=O)NO)cc2)n1` [Example 11, N-Hydroxy-4-[4-(2-methyl-6-trifluoromethyl-imidazo[1,2-a]pyridin-3-yl)-pyrimidin-2-ylamino]-benzamide]: the values for the IC50 on HDAC 1 and at CDK2 were 0.089 µM and 0.07 µM, respectively.
`Cc1nc2cnccn2c1-c1ccnc(Nc2ccc(C(=O)NO)cc2)n1` [Example 19, N-Hydroxy-4-[4-(2-methyl-imidazo[1,2-a]pyrazin-3-yl)-pyrimidin-2-ylamino]-benzamide]: the IC50 at HDAC 1 worked out at 0.0937 µM; at CDK2 it was 0.07 µM.
As for `Cc1nc2cnccn2c1-c1ccnc(Nc2ccc(C(=O)Nc3ccccc3N)cc2)n1` [Example 20, N-(2-Amino-phenyl)-4-[4-(2-methyl-imidazo[1,2-a]pyrazin-3-yl)-pyrimidin-2-ylamino]-benzamide], the IC50 on HDAC 1 turned out to be 0.165 µM; against CDK2 it was 0.9 µM.
As for `Cc1nc2ccccn2c1-c1ccnc(Nc2ccc(C(=O)Nc3ccccc3N)cn2)n1` [Example 66, N-(2-aminophenyl)-6-(4-(2-methylimidazo[1,2-a]pyridin-3-yl)pyrimidin-2-ylamino)nicotinamide], the figures for the IC50 on HDAC 1 and at CDK2 were 0.289 µM and 3.48 µM, respectively.
For the compound `Cc1nc2ccccn2c1-c1ccnc(Nc2ncc(C(=O)NO)cn2)c1` [Example 74, N-hydroxy-2-(4-(2-methylimidazo[1,2-a]pyridin-3-yl)pyridin-2-ylamino)pyrimidine-5-carboxamide], the results for the IC50 at HDAC 1 and on CDK2 were 0.104 µM and 6.47 µM, respectively.
As to `Cc1nc2cc(N3CCOCC3)ccn2c1-c1ccnc(Nc2ccc(C(=O)Nc3ccccc3N)cc2)n1` [Example 23, N-(2-Amino-phenyl)-4-[4-(2-methyl-7-morpholin-4-yl-imidazo[1,2-a]pyridin-3-yl)-pyrimidin-2-ylamino]-benzamide], the concentration for half-maximal inhibition (IC50) was determined as 5.29 µM at HDAC 1 and 0.67 µM on CDK2.
On the same counts, the results for `Nc1ccccc1NC(=O)c1cccc(Nc2nccc(-c3cnc4ccccn34)n2)c1` [Example 8, N-(2-Amino-phenyl)-3-(4-imidazo[1,2-a]pyridin-3-yl-pyrimidin-2-ylamino)-benzamide] are > 50 µM and 0.144 µM.
Turning to `Cc1nc2ccccn2c1-c1ccnc(Nc2cc(C(=O)Nc3ccccc3N)cs2)n1` [Example 59, N-(2-aminophenyl)-5-(4-(2-methylimidazo[1,2-a]pyridin-3-yl)pyrimidin-2-ylamino)thiophene-3-carboxamide], the IC50 on HDAC 1 amounted to 0.993 µM; against CDK2 it was 0.04 µM.
As to `Cc1nc2cc(C(=O)O)ccn2c1-c1ccnc(Nc2ccc(C(=O)Nc3ccccc3N)cc2)n1` [Example 28, 3-{2-[4-(2-Amino-phenylcarbamoyl)-phenylamino]-pyrimidin-4-yl}-2-methyl-imidazo[1,2-a]pyridine-7-carboxylic acid], the IC50 came out at 0.621 µM on HDAC 1 and 2.53 µM at CDK2.
`Cc1nc2ccccn2c1-c1ccnc(Nc2ccc(C(=O)NO)c(F)c2)n1` [Example 35, 2-Fluoro-N-hydroxy-4-[4-(2-methyl-imidazo[1,2-a]pyridin-3-yl)-pyrimidin-2-ylamino]-benzamide]: the IC50 on HDAC 1 amounted to 0.128 µM; at CDK2, 0.06 µM.
For `Nc1ccccc1NC(=O)c1ccc(Nc2nccc(-c3c(C(F)(F)F)nc4ccccn34)n2)cc1` [Example 16, N-(2-Amino-phenyl)-4-[4-(2-trifluoromethyl-imidazo[1,2-a]pyridin-3-yl)-pyrimidin-2-ylamino]-benzamide], the IC50 is 0.295 µM at HDAC 1 and 0.16 µM at CDK2.
As for `Cc1nc2ccccn2c1-c1ccnc(Nc2ccc(C(=O)Nc3ccccc3N)cc2)c1` [Example 54, N-(2-Amino-phenyl)-4-[4-(2-methyl-imidazo[1,2-a]pyridin-3-yl)-pyridin-2-ylamino]-benzamide], the IC50 on HDAC 1 was determined as 0.053 µM; against CDK2, 13.1 µM.
On to `Cc1nc2ccccn2c1-c1ccnc(Nc2ccc(C(=O)NO)cc2)c1` [Example 53, N-Hydroxy-4-[4-(2-methyl-imidazo[1,2-a]pyridin-3-yl)-pyridin-2-ylamino]-benzamide], for which the IC50 is 0.021 µM on HDAC 1 and 3.6 µM at CDK2.
Consider `Nc1ccccc1NC(=O)c1ccc(Nc2cc(-c3cnc4ccccn34)ncn2)cc1` [Example 55, N-(2-Amino-phenyl)-4-(6-imidazo[1,2-a]pyridin-3-yl-pyrimidin-4-ylamino)-benzamide], for which the results for the IC50 at HDAC 1 and on CDK2 were 0.2 µM and > 40 µM, respectively.
As to `COc1ccc2nc(C)c(-c3ccnc(Nc4ccc(C(=O)Nc5ccccc5N)cc4)n3)n2c1` [Example 42, N-(2-Amino-phenyl)-4-[4-(6-methoxy-2-methyl-imidazo[1,2-a]pyridin-3-yl)-pyrimidin-2-ylamino]-benzamide], the IC50 on HDAC 1 came out at 0.388 µM; against CDK2, 0.29 µM.
The corresponding values for `Cc1nc2ccccn2c1-c1ccnc(Nc2ccc(C(=O)NO)s2)n1` [Example 52, N-hydroxy-5-(4-(2-methylimidazo[1,2-a]pyridin-3-yl)pyrimidin-2-ylamino)thiophene-2-carboxamide] are 0.31 µM and 0.07 µM.
In the case of `Cc1nc2ccccn2c1-c1ccnc(Nc2ncc(C(=O)NO)s2)c1` [Example 73, N-hydroxy-2-(4-(2-methylimidazo[1,2-a]pyridin-3-yl)pyridin-2-ylamino)thiazole-5-carboxamide], the IC50 worked out at 0.185 µM on HDAC 1 and 1.68 µM at CDK2.
Take `Cc1nc2cc(CN(C)C)ccn2c1-c1ccnc(Nc2ccc(C(=O)Nc3ccccc3N)cc2)n1` [Example 46, N-(2-Amino-phenyl)-4-[4-(7-dimethylaminomethyl-2-methyl-imidazo[1,2-a]pyridin-3-yl)-pyrimidin-2-ylamino]-benzamide]: the figures for the IC50 on HDAC 1 and against CDK2 were 0.13 µM and 1.61 µM, respectively.
Take `Cc1nc2ccccn2c1-c1ccnc(Nc2cc(C(=O)NO)cs2)n1` [Example 60, N-hydroxy-5-(4-(2-methylimidazo[1,2-a]pyridin-3-yl)pyrimidin-2-ylamino)thiophene-3-carboxamide]: the IC50 turned out to be 0.164 µM on HDAC 1 and 0.03 µM on CDK2.
With `Cc1nc2ccccn2c1-c1ccnc(Nc2cnc(C(=O)Nc3ccccc3N)cn2)n1` [Example 68, N-(2-aminophenyl)-5-(4-(2-methylimidazo[1,2-a]pyridin-3-yl)pyrimidin-2-ylamino)pyrazine-2-carboxamide], the IC50 is 0.0206 µM at HDAC 1 and > 40 µM at CDK2.
On to `Cc1nc2cc(C(F)(F)F)ccn2c1-c1ccnc(Nc2ccc(C(=O)Nc3ccccc3N)cc2)n1` [Example 10, N-(2-Amino-phenyl)-4-[4-(2-methyl-7-trifluoromethyl-imidazo[1,2-a]pyridin-3-yl)-pyrimidin-2-ylamino]-benzamide], for which the IC50 on HDAC 1 was > 10 µM; against CDK2, 0.084 µM.
